Our source for the DC50 and Dmax values is patent publication US20240190841A1, “MODULATORS OF BCL6 PROTEOLYSIS AND ASSOCIATED METHODS OF USE” (Arvinas Operations, Inc., priority 2022, published 2024).

The structures appear in SMILES notation.

This assay deals with T1, BCL6 (Homo sapiens, UniProt P41182).
T1 construct: endogenous in cells; host or cells: T47D breast cancer epithelial cells
As to the kind of experiment: Immunofluorescence high content imaging of BCL6 degradation in T47D cells. Format: cell-based. Conditions: T47D breast cancer epithelial cells, 3 days incubation. The method in brief: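 T47D breast cancer cells treated 3 days at 37 °C with an 11-point 3-fold dilution series (top final 0.1 or 1 μM). Fixed with 4% PFA, Triton-permeabilised, stained with anti-BCL6 rabbit antibody plus Alexa-488 secondary, CellMask and Hoechst; imaged at 10×, 4 fields/well.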
One may read the DC50 as the concentration at which degradation of the target reaches its halfway point. The low end stands for degradation at low concentration, the high end for degradation only at high concentration. For orientation: Dmax means the largest share of the target that was removed. Read a high Dmax as a fuller loss of target. Compound `CNC(=O)COc1cc2cc(Nc3nc(N4CCC(O[C@H]5C[C@H](N6CCC(c7ccc8c(c7)n(C)c(=O)n8C7CCC(=O)NC7=O)CC6)C5)CC4)ncc3Cl)ccc2n(C(C)C)c1=O` (stereo partly shown) [Compound 4, 2-({6-[(5-chloro-2-{4-[(1r,3r)-3-{4-[1-(2,6-dioxopiperidin-3-yl)-3-methyl-2-oxo-2,3-dihydro-1H-1,3-benzodiazol-5-yl]piperidin-1-yl}cyclobutoxy]piperidin-1-yl}pyrimidin-4-yl)amino]-2-oxo-1-(propan-2-yl)-1,2-dihydroquinolin-3-yl}oxy)-N-methylacetamide] registered a DC50 of under 10 nM and a Dmax of at least 70%.

The compound `CNC(=O)COc1cc2cc(Nc3nc(N4CCC(CN5CCC(C6CCN(c7ccc8c(c7F)CN(C7CCC(=O)NC7=O)C8=O)CC6)C(F)C5)CC4)ncc3Cl)ccc2n(C(C)C)c1=O` (stereo not shown) [Compound 44, 2-{[6-({5-chloro-2-[4-({1′-[2-(2,6-dioxopiperidin-3-yl)-4-fluoro-1-oxo-2,3-dihydro-1H-isoindol-5-yl]-3-fluoro-[4,4′-bipiperidin]-1-yl}methyl)piperidin-1-yl]pyrimidin-4-yl}amino)-2-oxo-1-(propan-2-yl)-1,2-dihydroquinolin-3-yl]oxy}-N-methylacetamide] yielded a DC50 of under 10 nM and a Dmax of 50 to 70%.

Consider `CNC(=O)COc1cc2cc(Nc3nc(N4CCC(O[C@H]5C[C@H](N6CCN(c7cc(F)c8c(c7)n(C(C)C)c(=O)n8C7CCC(=O)NC7=O)CC6)C5)CC4)ncc3Cl)ccc2n(C(C)C)c1=O` (stereo partly shown) [Compound 29, 2-({6-[(5-chloro-2-{4-[(1r,3r)-3-{4-[1-(2,6-dioxopiperidin-3-yl)-7-fluoro-2-oxo-3-(propan-2-yl)-2,3-dihydro-1H-1,3-benzodiazol-5-yl]piperazin-1-yl}cyclobutoxy]piperidin-1-yl}pyrimidin-4-yl)amino]-2-oxo-1-(propan-2-yl)-1,2-dihydroquinolin-3-yl}oxy)-N-methylacetamide], for which the DC50 was under 10 nM and the Dmax was at least 70%.

Regarding `CNC(=O)COc1cc2cc(Nc3nc(N4CCC(O[C@H]5C[C@H](N6CCN(c7ccc8c(c7)n(C)c(=O)n8C7CCC(=O)NC7=O)[C@@H](C)C6)C5)CC4)ncc3Cl)ccc2n(C(C)C)c1=O` (stereo partly drawn) [Compound 18, 2-({6-[(5-chloro-2-{4-[(1r,3r)-3-[(3S)-4-[1-(2,6-dioxopiperidin-3-yl)-3-methyl-2-oxo-2,3-dihydro-1H-1,3-benzodiazol-5-yl]-3-methylpiperazin-1-yl]cyclobutoxy]piperidin-1-yl}pyrimidin-4-yl)amino]-2-oxo-1-(propan-2-yl)-1,2-dihydroquinolin-3-yl}oxy)-N-methylacetamide], the DC50 is under 10 nM and the Dmax was at least 70%.

Regarding `CNC(=O)COc1cc2cc(Nc3nc(N4CCC(O[C@H]5C[C@H](N6CCN(c7ccc8c(c7F)n(C(C)C)c(=O)n8C7CCC(=O)NC7=O)CC6)C5)CC4)ncc3Cl)ccc2n(C(C)C)c1=O` (stereo partly shown) [Compound 28, 2-({6-[(5-chloro-2-{4-[(1r,3r)-3-{4-[1-(2,6-dioxopiperidin-3-yl)-4-fluoro-2-oxo-3-(propan-2-yl)-2,3-dihydro-1H-1,3-benzodiazol-5-yl]piperazin-1-yl}cyclobutoxy]piperidin-1-yl}pyrimidin-4-yl)amino]-2-oxo-1-(propan-2-yl)-1,2-dihydroquinolin-3-yl}oxy)-N-methylacetamide], the DC50 is under 10 nM and the Dmax is at least 70%.
